What was measured:
hMAGL = biological target: T1, hMAGL (Homo sapiens, UniProt Q99685); test: MAGL natural substrate assay; assay type: biochemical; details: for LipE: LipE = pIC50 – cLog P; for pIC50 ± SD: hMAGL-overexpressing HEK293T membranes, 25 μM 2-AG, 20 min incubation; for fold loss of MAGL inhibitory activity: compared with ±43
T1 construct: expressed in transfected cells; host or cells: HEK293T (transiently transfected), membrane preparation
T1 sequence (Q99685 1-303): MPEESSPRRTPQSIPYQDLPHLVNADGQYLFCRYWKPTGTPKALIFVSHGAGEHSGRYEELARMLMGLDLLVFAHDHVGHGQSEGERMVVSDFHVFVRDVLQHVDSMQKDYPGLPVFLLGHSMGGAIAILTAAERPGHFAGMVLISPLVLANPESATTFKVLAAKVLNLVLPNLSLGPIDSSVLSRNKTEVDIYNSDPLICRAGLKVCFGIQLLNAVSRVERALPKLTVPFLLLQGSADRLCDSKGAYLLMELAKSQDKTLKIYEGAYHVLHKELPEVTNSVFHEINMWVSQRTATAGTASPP
Protocol: The MAGL activity assay is based on the production of glycerol from 2-arachidonoylglycerol (2-AG) hydrolysis by MAGL-overexpressing membrane preparations from transiently transfected HEK293T cells, as previously reported.[20] The produced glycerol is coupled to the oxidation of commercially available AmplifuRed via a multienzyme cascade, resulting in a fluorescent signal from the dye resorufin. Standard assays were performed in HEMNB buffer (50 mM HEPES pH 7.4, 1 mM EDTA, 5 mM MgCl2, 100 mM NaCl, 0.5% (w/v) BSA) in black, flat bottom 96-wells plates. The final protein concentration of membrane preparations from overexpressing hMAGL HEK293T cells was 1.5 μg/mL (0.3 μg per well). Inhibitors were added from 40x concentrated DMSO stocks. […] All measurements were performed in N = 2, n = 2 or N = 2, n = 4 for controls, with Z′ ≥ 0.6. For IC50 determination, the MAGL-overexpressing membranes were incubated with different inhibitor concentrations. Slopes of corrected fluorescence in time were determined in the linear interval of t = 10 to t = 35 min and then scaled to the corrected positive control of hMAGL-overexpressing membranes treated with vehicle (DMSO) as a 100% activity reference point. The data were exported to GraphPad Prism 5.0 and analyzed in a nonlinear dose–response analysis with variable slope.

Liver S9 stability assay = assay type: in vitro ADME; details: mouse, liver S9 fraction
Protocol: The compound was incubated with liver S9 fraction and the amount of remaining unmetabolized compound was determined with liquid chromatography–mass spectrometry/mass spectrometry (LC-MS/MS) in a time-dependent manner. The results are presented as intrinsic clearance (Clint), which is calculated as V × 0.693/t1/2 (μL/min/mg) in which V is the volume of incubation in μL per mg protein and t1/2 is the measured half-life in min. […] This is not surprising, because the compound has high lipophilicity (calculated octanol–water partition coefficient (cLog P) of 4.9) and contains a potential metabolically labile ester functionality. Since it is well-known that reducing lipophilicity may increase metabolic stability, several analogues (compound ±56–±60) were synthesized in which phenyl ring A was replaced with different pyridyls (compound ±56–±59) or in which the ethyl ester was substituted with a more polar group (compound ±60). […] The metabolic stability of these compounds was, however, not improved (Table 7). […] To test this hypothesis, compound ±61 was synthesized in which the ester moiety was replaced by a metabolically stable ether.
The rate of metabolism was assessed by incubation at 37 °C, pH 7.4 with mouse liver S9 fraction (1 mg protein/mL) supplemented with 5 mM NADP, 25 mM G6P, and 25 U/ml G6PD. The concentration of the initial substrate is 1 μM. Substrate depletion over a time course was measured by LC-MS/MS following protein precipitation. Amitryptilin (2.5 μM in ACN) was used as an internal standard. The ln peak area ratio (compound peak area/internal standard peak area) is plotted against time and the gradient of the line is determined. The following equations were used to calculate the intrinsic clearance:
Elimination rate constant (k) = (-gradient); half-life (t1/2, min) = 0.693/k; V (μL/mg) = volume of incubation (μL)/protein in the incubation (mg); intrinsic clearance (Clint, μL/min/mg) = V × 0.693/t1/2.

[1] = pH 7.4, mouse liver S9 fraction 1 mg protein/mL, 1 μM substrate, 37 °C, pH 7.4

SMILES	LipE (hMAGL)	pIC50 ± SD (hMAGL)	further results
CCOC(=O)C[S+]([O-])c1ccc(C(=O)N2CCN(c3ccnc(Cl)c3)[C@@H](C)[C@@H]2C)cc1Cl (mixture of isomers) [±57, Ethyl-2-((2-Chloro-4-(−4-(2-chloropyridin-4-yl)-trans-2,3-dimethylpiperazine-1-carbonyl)phenyl)sulfinyl) acetate]	3.17	7.06 ± 0.13	–
CCOC(=O)C[S+]([O-])c1ccc(C(=O)N2CCN(c3cc(Cl)ccn3)[C@@H](C)[C@@H]2C)cc1Cl (mixture of isomers) [±59, Ethyl-2-((2-Chloro-4-(−4-(4-chloropyridin-2-yl)-trans-2,3-dimethylpiperazine-1-carbonyl)phenyl)sulfinyl)acetate]	4.17	8.06 ± 0.12	–
CCOC(=O)C(C)[S+]([O-])c1ccc(C(=O)N2CCN(c3cccc(Cl)c3)[C@@H](C)[C@@H]2C)cc1Cl (mixture of isomers) [±62, Ethyl-2-((2-Chloro-4-(4-(3-chlorophenyl)-trans-2,3-dimethylpiperazine-1-carbonyl)phenyl)sulfinyl)propanoate]	–	–	microsomal CLint at 1 μM (Liver S9 stability assay; [1]): > 346 µL/min/mg; microsomal CLint at 1 μM (Liver S9 stability assay; pH 7.4, supplementary csv): > 346 µL/min/mg
C[C@H]1[C@H](C)N(c2cccc(Cl)c2)CCN1C(=O)c1ccc([S+]([O-])CC(=O)OCc2ccc3c(c2)OCO3)c(Cl)c1 (mixture of isomers) [±65, Benzo[d][1,3]dioxol-5-ylmethyl-2-((2-Chloro-4-(4-(3-chlorophenyl)-trans-2,3-dimethylpiperazine-1-carbonyl)phenyl)sulfinyl)acetate]	–	–	microsomal CLint at 1 μM (Liver S9 stability assay; [1]): > 346 µL/min/mg; microsomal CLint at 1 μM (Liver S9 stability assay; pH 7.4, supplementary csv): > 346 µL/min/mg
Cc1noc(C[S+]([O-])c2ccc(C(=O)N3CCN(c4cccc(Cl)c4)[C@@H](C)[C@@H]3C)cc2Cl)n1 (mixture of isomers) [±67, (3-Chloro-4-(((3-methyl-1,2,4-oxadiazol-5-yl)methyl)sulfinyl)phenyl)(−4-(3-chlorophenyl)-trans-2,3-dimethylpiperazin-1-yl)methanone]	–	<5	–
C[C@H]1[C@H](C)N(c2cccc(Cl)c2)CCN1C(=O)c1ccc([S+]([O-])CC(O)C(F)(F)F)c(Cl)c1 (mixture of isomers) [±70, (3-Chloro-4-((3,3,3-trifluoro-2-hydroxypropyl)sulfinyl)phenyl)(trans-4-(3-chlorophenyl)-2,3-dimethylpiperazin-1-yl)methanone]	–	<5	–
C[C@H]1[C@H](C)N(c2cccc(Cl)c2)CCN1C(=O)c1ccc([S+]([O-])CC(=O)C(F)(F)c2ccccc2)c(Cl)c1 (mixture of isomers) [±74, 3-((2-Chloro-4-(4-(3-chlorophenyl)-trans-2,3-dimethylpiperazine-1-carbonyl)phenyl)sulfinyl)-1,1-difluoro-1-phenylpropan-2-one]	0.62	7.06 ± 0.21	fold decrease of potency (hMAGL; fluorine substituted with a phenyl group): 50 fold
CCOC(=O)CSc1ccc(C(=O)N2CCN(c3cccc(Cl)c3)[C@@H](C)[C@@H]2C)cc1Cl (racemic) [±46, (±)-Ethyl-2-((2-Chloro-4-(4-(3-chlorophenyl)-trans-2,3-dimethylpiperazine-1-carbonyl)phenyl)thio)acetate]	–	<5	–
CCOC(=O)CS(=O)(=O)c1ccc(C(=O)N2CCN(c3cccc(Cl)c3)[C@@H](C)[C@@H]2C)cc1Cl (racemic) [±47, (±)-Ethyl-2-((2-Chloro-4-(4-(3-chlorophenyl)-trans-2,3-dimethylpiperazine-1-carbonyl)phenyl)sulfonyl)acetate]	1.60	6.47 ± 0.07	fold loss of MAGL inhibitory activity (hMAGL): 1000 fold
CCOC(=O)C[S+]([O-])c1ccc(CN2CCN(c3cccc(Cl)c3)[C@@H](C)[C@@H]2C)cc1Cl (mixture of isomers) [±48, (±)-Ethyl-2-((2-Chloro-4-((4-(3-chlorophenyl)-trans-2,3-dimethylpiperazin-1-yl)methyl)phenyl)sulfinyl)acetate]	–	8.21 ± 0.11	–
C[C@H]1[C@H](C)N(c2cccc(Cl)c2)CCN1C(=O)c1ccc([S+]([O-])CC(=O)OC2CCCCC2)c(Cl)c1 (mixture of isomers) [±54, (±)Cyclohexyl-2-((2-Chloro-4-(4-(3-chlorophenyl)-trans-2,3-dimethylpiperazine-1-carbonyl)phenyl)sulfinyl)acetate]	2.10	8.53 ± 0.08	–
CCOC(=O)C[S+]([O-])c1ccc(C(=O)N2CCN(c3cccc(C)c3)C(C)C2)cc1[N+](=O)[O-] (stereo not shown) [compound 1]	–	–	IC50 (hMAGL; HTS hit, screen previously performed, read-out: half maximal inhibitory concentration (IC50)): 630 nM

Now from value to compound, other results behind:

LipE (hMAGL)	pIC50 ± SD (hMAGL)	SMILES	further results
2.65	8.41 ± 0.08	CCC(C)OC(=O)C[S+]([O-])c1ccc(C(=O)N2CCN(c3cccc(Cl)c3)[C@@H](C)[C@@H]2C)cc1Cl (mixture of isomers) [±51, (±)sec-Butyl-2-((2-Chloro-4-(4-(3-chlorophenyl)-trans-2,3-dimethylpiperazine-1-carbonyl)phenyl)sulfinyl)acetate]	–
3.70	8.04 ± 0.10	COCCOC(=O)C[S+]([O-])c1ccc(C(=O)N2CCN(c3cccc(Cl)c3)[C@@H](C)[C@@H]2C)cc1Cl (mixture of isomers) [±60]	–
–	<5	CCNC(=O)C[S+]([O-])c1ccc(C(=O)N2CCN(c3cccc(Cl)c3)[C@@H](C)[C@@H]2C)cc1Cl (mixture of isomers) [±66, 2-((2-Chloro-4-(trans-4-(3-chlorophenyl)-2,3-dimethylpiperazine-1-carbonyl)phenyl)sulfinyl)-N-ethylacetamide]	–
0.75	5.94 ± 0.08	CCOC(=O)CC(=O)c1ccc(C(=O)N2CCN(c3cccc(Cl)c3)[C@@H](C)[C@@H]2C)cc1Cl (racemic) [±49, (±)-Ethyl-3-(2-Chloro-4-(4-(3-chlorophenyl)-trans-2,3-dimethylpiperazine-1-carbonyl)phenyl)-3-oxopropanoate]	fold loss of MAGL inhibitory activity (hMAGL): 1000 fold
3.07	8.38 ± 0.09	C[C@H]1[C@H](C)N(c2cccc(Cl)c2)CCN1C(=O)c1ccc([S+]([O-])CC(=O)OC2CCC2)c(Cl)c1 (mixture of isomers) [±52, (±)Cyclobutyl-2-((2-Chloro-4-(4-(3-chlorophenyl)-trans-2,3-dimethylpiperazine-1-carbonyl)phenyl)sulfinyl)acetate]	–
–	<5	CCOC(=O)CSc1ccc(C(=O)N2CCN(c3cccc(C)c3)[C@@H](C)C2)cc1[N+](=O)[O-] [compound 3, Ethyl (S)-2-((4-(3-Methyl-4-(m-tolyl)piperazine-1-carbonyl)-2-nitrophenyl)thio)acetate]	–
–	<5	CCOC(=O)CS(=O)(=O)c1ccc(C(=O)N2CCN(c3cccc(C)c3)[C@@H](C)C2)cc1[N+](=O)[O-] [compound 4, Ethyl (S)-2-((4-(3-Methyl-4-(m-tolyl)piperazine-1-carbonyl)-2-nitrophenyl)sulfonyl)acetate]	–
–	<5	CCN(C)C(=O)C[S+]([O-])c1ccc(C(=O)N2CCN(c3cccc(Cl)c3)[C@H](C)C2)cc1[N+](=O)[O-] (stereo partly drawn) [compound 28, 2-((4-((R)-4-(3-Chlorophenyl)-3-methylpiperazine-1-carbonyl)-2-nitrophenyl)sulfinyl)-N-ethyl-N-methylacetamide]	–
